According to patent US20230053540A1, “TREATMENT OF LIVER INJURY” (Massachusetts Institute of Technology, priority 2019, published 2023):

Test system: hepatocytes
Assay: Seq-Well scRNA-Seq of hepatocytes after APAP overdose (signature scores, DEG vs untreated)
Assay type: in vivo, mouse
Conditions: APAP vs UT

CC(=O)Nc1ccc(O)cc1 [APAP, acetaminophen]
Tm7sf2 logFC (composite DEG): −0.3164 | Tmbim4 logFC (composite DEG): 0.3227 | Tmbim6 logFC (composite DEG): 0.3387 | Tmed5 logFC (composite DEG): 0.4016 | Tmem14c logFC (composite DEG): −0.3685 | Tmem37 logFC (composite DEG): −0.2822 | Tmem56 logFC (composite DEG): 1 | Tmem147 logFC (composite DEG): −0.2838 | Tmem160 logFC (composite DEG): −0.339 | Tmem205 logFC (composite DEG): −0.7747 | Tmem243 logFC (composite DEG): −0.3791 | Tmem258 logFC (composite DEG): −0.2769 | Tmprss6 logFC (composite DEG): −0.2802 | Tmsb4x logFC (composite DEG): 0.7806 | Tnks2 logFC (composite DEG): 0.3176 | Tns1 logFC (composite DEG): 0.4349 | Tob1 logFC (composite DEG): −0.3387 | Tomm70a logFC (composite DEG): 0.2688 | Tpr logFC (composite DEG): 0.4409 | Trf logFC (composite DEG): −0.2619 | Trib1 logFC (composite DEG): 0.3317 | Trp53inp1 logFC (composite DEG): 1.008 | Tsc22d1 logFC (composite DEG): −0.2997 | Tspan31 logFC (composite DEG): −0.2959 | Tspo logFC (composite DEG): −0.3157 | Ttc36 logFC (composite DEG): −0.6606 | Tubb6 logFC (composite DEG): 0.5767 | Txn1 logFC (composite DEG): −0.3091 | Txndc5 logFC (composite DEG): 0.2901 | Txnrd1 logFC (composite DEG): 1.444 | Tyrobp logFC (composite DEG): 0.4666 | Ubb logFC (composite DEG): −0.275 | Ubc logFC (composite DEG): −0.6618 | Ubl5 logFC (composite DEG): −0.3033 | Ubr4 logFC (composite DEG): 0.3301 | Ugp2 logFC (composite DEG): 0.2973 | Ugt2b1 logFC (composite DEG): −0.7768 | Ugt2b5 logFC (composite DEG): −0.6034 | Ugt2b36 logFC (composite DEG): −0.5834 | Uhrf1bp1l logFC (composite DEG): 0.4198 | Uqcc2 logFC (composite DEG): −0.3269 | Uqcrb logFC (composite DEG): −0.4084 | Uqcrq logFC (composite DEG): −0.8867 | Urah logFC (composite DEG): −0.7641 | Uroc1 logFC (composite DEG): 0.4162 | Vcam1 logFC (composite DEG): 0.4574 | Vnn3 logFC (composite DEG): 0.2765 | Vtn logFC (composite DEG): 0.3338 | Wbp1l logFC (composite DEG): 0.5535 | Wdr26 logFC (composite DEG): 0.4325 | Wdr43 logFC (composite DEG): 0.3438 | Xiap logFC (composite DEG): 0.2602 | Yap1 logFC (composite DEG): 0.3281 | Zbtb20 logFC (composite DEG): 0.4715 | Zfp91 logFC (composite DEG): 0.3707 | Zyx logFC (composite DEG): 0.2983 | mmu-mir-6240 logFC (composite DEG): 1.101 | mt-Co3 logFC (composite DEG): −1.167 | 0610007P14Rik logFC (A24logFC): −0.257 | 1110058L19Rik logFC (A24logFC): −0.2581 | 4931406C07Rik logFC (A24logFC): −0.2544 | 4932438A13Rik logFC (A24logFC): 0.2879 | 2810428115Rik logFC (A24logFC): −0.2631 | Abcb11 logFC (A24logFC): −0.2618 | Abcc2 logFC (A24logFC): 0.2897 | Abce1 logFC (A24logFC): 0.28 | Abcf1 logFC (A24logFC): 0.3032 | Abcg2 logFC (A24logFC): −0.2809 | Acaa1a logFC (A24logFC): −0.3018 | Acat3 logFC (A24logFC): −0.3115 | Acot13 logFC (A24logFC): −0.2886 | Acsm5 logFC (A24logFC): −0.2614 | Actr3 logFC (A24logFC): 0.276 | Aes logFC (A24logFC): −0.2642 | Anxa5 logFC (A24logFC): 0.3654 | Apof logFC (A24logFC): −0.2522 | Arhgdia logFC (A24logFC): 0.2563 | Ash11 logFC (A24logFC): 0.2657 | Atf4 logFC (A24logFC): 0.3411 | Bc1af1 logFC (A24logFC): 0.2685 | Bdhl logFC (A24logFC): −0.2936 | C6 logFC (A24logFC): −0.267 | C1d logFC (A24logFC): −0.2553 | Cap1 logFC (A24logFC): 0.3251 | Ccdc50 logFC (A24logFC): 0.2858 | Ccnl1 logFC (A24logFC): 0.2566 | Cdh1 logFC (A24logFC): 0.2697 | Cep85 logFC (A24logFC): 0.2839 | Chmp4b logFC (A24logFC): 0.3002 | Chuk logFC (A24logFC): 0.3724 | Clic4 logFC (A24logFC): 0.2998 | Coasy logFC (A24logFC): −0.2534 | Commd3 logFC (A24logFC): −0.2656 | Csrp3 logFC (A24logFC): −0.294 | Ctnnd1 logFC (A24logFC): 0.2518 | Ctsc logFC (A24logFC): 0.361 | Cu11 logFC (A24logFC): 0.2592 | Cu13 logFC (A24logFC): 0.2788 | Cybb logFC (A24logFC): 0.3778 | Dcaf11 logFC (A24logFC): −0.2817 | Ddost logFC (A24logFC): 0.2504 | Ddx3y logFC (A24logFC): 0.3395 | Deb1 logFC (A24logFC): −0.267 | Dera logFC (A24logFC): −0.2674 | Diap1 logFC (A24logFC): 0.3259 | Dnaja2 logFC (A24logFC): 0.3723 | Dnajc5 logFC (A24logFC): 0.3265 | Dsp logFC (A24logFC): 0.2655 | Eea1 logFC (A24logFC): 0.2612 | Eif4a1 logFC (A24logFC): 0.2519 | Eif4ebp1 logFC (A24logFC): 0.2617 | Eifia logFC (A24logFC): 0.3147 | Eifib logFC (A24logFC): 0.2503 | Eific logFC (A24logFC): 0.302 | Elovl5 logFC (A24logFC): 0.3352 | Fam195a logFC (A24logFC): −0.2649 | Fasn logFC (A24logFC): 0.2914 | Fbxo21 logFC (A24logFC): −0.2631 | Ftsj3 logFC (A24logFC): 0.2552 | Gadd45a logFC (A24logFC): 0.2829 | Gars logFC (A24logFC): 0.2576 | Gcat logFC (A24logFC): −0.2587 | Gcgr logFC (A24logFC): −0.2576 | Gda logFC (A24logFC): 0.6275 | Gldc logFC (A24logFC): 0.2802 | Glul logFC (A24logFC): 0.3795 | Gm5424 logFC (A24logFC): 0.2698 | Gm20594 logFC (A24logFC): −0.36 | Gnai2 logFC (A24logFC): 1 | Gnas logFC (A24logFC): 0.2589 | Gsr logFC (A24logFC): 0.4128 | Gtf2a2 logFC (A24logFC): 0.2792 | H2-D1 logFC (A24logFC): 0.2865 | Hectd1 logFC (A24logFC): 0.308 | Herc1 logFC (A24logFC): 0.2562 | Herc4 logFC (A24logFC): 0.2675 | Hipk1 logFC (A24logFC): 0.2916 | Hnrnpu logFC (A24logFC): 0.3394 | Hpn logFC (A24logFC): −0.2686 | Hsbp1 logFC (A24logFC): −0.2867 | Iah1 logFC (A24logFC): −0.293 | Impad1 logFC (A24logFC): 0.3227 | Ivns1abp logFC (A24logFC): 0.3566 | Kdm5a logFC (A24logFC): 0.3514 | Ldlr logFC (A24logFC): 0.282 | Lipc logFC (A24logFC): −0.2548 | Magi3 logFC (A24logFC): 0.27 | Map3k2 logFC (A24logFC): 0.2518 | Mapkapk2 logFC (A24logFC): 0.3138 | Megf9 logFC (A24logFC): 0.2769 | Mgea5 logFC (A24logFC): 0.3263 | Mrpl11 logFC (A24logFC): −0.2685 | Mrpl15 logFC (A24logFC): −0.2912 | Mrpl20 logFC (A24logFC): −0.3093 | Mrpl28 logFC (A24logFC): −0.2699 | Mrpl34 logFC (A24logFC): −0.2838 | Mrpl41 logFC (A24logFC): −0.2674 | Mrpl42 logFC (A24logFC): −0.2845 | Mrps12 logFC (A24logFC): −0.2504 | Mvd logFC (A24logFC): −0.2704 | Myeov2 logFC (A24logFC): −0.3052 | Myo1b logFC (A24logFC): 0.2624 | Naa50 logFC (A24logFC): 0.2657 | Ndufa5 logFC (A24logFC): −0.252 | Nek7 logFC (A24logFC): 0.2911 | Net1 logFC (A24logFC): 0.3479 | Nploc4 logFC (A24logFC): 0.2918 | Nqo2 logFC (A24logFC): −0.2678 | Nucks1 logFC (A24logFC): 0.3558 | Nudt4 logFC (A24logFC): 0.2542 | Pa2g4 logFC (A24logFC): 0.2893 | Papss2 logFC (A24logFC): −0.2545 | Pcm1 logFC (A24logFC): 0.2654 | Pde3b logFC (A24logFC): −0.259 | Pdzd8 logFC (A24logFC): 0.2863 | Pet100 logFC (A24logFC): −0.28 | Pgls logFC (A24logFC): −0.2747 | Pi4k2a logFC (A24logFC): 0.3536 | Pkp4 logFC (A24logFC): 0.323 | Plbd2 logFC (A24logFC): 0.2649 | Plcxd2 logFC (A24logFC): −0.2752 | Pmpcb logFC (A24logFC): −0.2636 | Ppip5k2 logFC (A24logFC): 0.3209 | Ppm1g logFC (A24logFC): 0.2522 | Proc logFC (A24logFC): −0.2707 | Prpf19 logFC (A24logFC): 0.2588 | Psap logFC (A24logFC): 0.361 | Psma1 logFC (A24logFC): −0.2567 | Psma6 logFC (A24logFC): −0.3035 | Ptpmt1 logFC (A24logFC): −0.256 | Ptpn11 logFC (A24logFC): 0.2778 | Pvrl2 logFC (A24logFC): −0.2613 | Rab6a logFC (A24logFC): 0.3234 | Rabac1 logFC (A24logFC): −0.266 | Rangap1 logFC (A24logFC): 0.2962 | Rap1b logFC (A24logFC): 0.3408 | Rassf3 logFC (A24logFC): 0.2912 | Rbm39 logFC (A24logFC): 0.2657 | Riok3 logFC (A24logFC): 0.2916 | Rmnd5a logFC (A24logFC): 0.3189 | Rnf169 logFC (A24logFC): 0.334 | Rock1 logFC (A24logFC): 0.2608
